Assay results as given in publication PMC11677126, “Synthesis and Structure–Activity Relationship of Thiourea Derivatives Against Leishmania amazonensis” (Pharmaceuticals, 2024).
Read-outs that look alike come from different tables or passages of the source.

Columns and labels:
[1] = test system: L. amazonensis promastigote; assay: Antipromastigote assay (resazurin fluorescence); assay type: cell-based, Leishmania amazonensis; settings: promastigotes, 72 h at 26 °C
Procedure: The fluorescence was measured using a Spectra Max GEMINI XPS spectrofluorometer (Molecular Devices, Silicon Valley, CA, USA) at excitation and emission wavelengths of 560 nm and 590 nm, respectively.

[2] = test system: L. amazonensis intracellular amastigotes; assay: Antiamastigote assay in infected peritoneal macrophages (infection index); assay type: cell-based; settings: Leishmania amazonensis, Peritoneal macrophage, 72 h
Procedure: Resident macrophages from BALB/c mice were obtained by peritoneal lavage with 5 mL of cold RPMI medium. The cell suspension was adjusted to a 2 × 10^6 cells/mL concentration and plated in LAB-TEK chambers. After 1 h, the cultures were washed with phosphate-buffered saline at 37 °C to remove non-adherent cells. The remaining cells were incubated at 37 °C/5% CO2 with promastigotes of L. amazonensis at a ratio of 3:1. After 3 h, the chambers were rewashed to remove free parasites. […] For G2, we first tested only at a concentration of 10 µM, and derivatives with inhibition above 60% were evaluated using the dose–response curve. The antiamastigote activity was evaluated microscopically after staining the chambers with the Instant Prov hematological dye system (Newprov, Curitiba, Brazil); at least 100 macrophages were counted per sample. The results were expressed as the infection index (IF) using the following formula: IF = % infected cells X (number of amastigotes/total macrophages). The IC50 value was determined by nonlinear regression using Graph Pad Prism 9.0.

[3] = Toxicity assay in murine macrophages (resazurin); assay type: cell-based; settings: BALB/c, mouse, mouse peritoneal macrophages
Procedure: Mouse peritoneal macrophages (2 × 10^6 cells/mL) in 96-well plates were treated with different concentrations of thiourea compounds (G1: 0–400 µM and G2: 0–125 µM) for 72 h at 37 °C/5% CO2. After removing the supernatant, viable cells were quantified by adding resazurin in phosphate-buffered saline, a final concentration of 50 µM, and then the samples were incubated for an additional 3 h. The fluorescence was measured using a Spectra Max GEMINI XPS spectrofluorometer (Molecular Devices, Silicon Valley, CA, USA) at excitation and emission wavelengths of 560 nm and 590 nm, respectively. The percentage of viable cells was calculated relative to the control cells. The cytotoxic concentrations lethal to 50% of the cells (CC50) were obtained by nonlinear regression of the sigmoid growth curves using the Graph Pad Prism 9.0 software.

[4] = test system: L. infantum amastigote; settings: cited from earlier work
[5] = test system: L. donovani amastigote; settings: cited from earlier work
[6] = test system: Leishmania infantum amastigotes; set-up: method as in PMID 30782984; settings: cited from earlier work
[7] = test system: Leishmania amazonensis amastigotes; set-up: method as in PMID 28966275; settings: read-out: IC50 (amastigote); cited from earlier work
[8] = test system: L. amazonensis promastigotes; set-up: method as in doi:10.5897/JMA2013.0261; settings: L. amazonensis promastigotes (text b27); cited from earlier work
[9] = test system: L. amazonensis promastigote; set-up: method as in PMID 28966275; settings: cited from earlier work
[10] = test system: Leishmania major promastigotes; set-up: method as in PMID 36001225; settings: after 48 h (text b28); cited from earlier work
[11] = Leishmania amazonensis, 72 h, G2 piperazine thioureas
[12] = Leishmania amazonensis, 72 h, G1 thioureas, maximum concentration tested 100 µM
[13] = G2 piperazine thioureas, maximum concentration tested 10 µM, unit from footnote
[14] = G2 piperazine thioureas, 0–125 µM
[15] = G1 thioureas, maximum concentration tested 25 µM
[16] = G1 thioureas, maximum concentration tested 100 µM

IC50 [1, 11] [µM]	IC50 [1, 12] [µM]	Molecule	other results
> 128	–	COc1ccc(CN2CCN(C(=S)Nc3ccccc3)CC2)c(OC)c1OC [Thiourea 5m]	–
> 128	–	COc1cc(NC(=S)N2CCN(Cc3ccc(OC)c(OC)c3OC)CC2)cc(OC)c1OC [Thiourea 5v]	–
> 128	–	COc1cc(NC(=S)N2CCN(C(=O)C3CCCO3)CC2)cc(OC)c1OC (stereo not shown) [Thiourea 5r]	–
> 128	–	COc1ccc(CN2CCN(C(=S)NCCc3ccccc3)CC2)c(OC)c1OC [Thiourea 5o]	–
> 128	–	S=C(NCCc1ccccc1)N1CCN(Cc2ccc3c(c2)OCO3)CC1 [Thiourea 5f]	–
> 128	–	O=C(C1CCCO1)N1CCN(C(=S)Nc2ccccc2)CC1 (stereo not shown) [Thiourea 5a]	–
> 128	–	S=C(Nc1ccccc1)N1CCN(c2nc3ccccc3[nH]2)CC1 [Thiourea 5p]	–
> 128	–	COc1cc(NC(=S)N2CCN(c3ccccc3Cl)CC2)cc(OC)c1OC [Thiourea 5u]	–
30.7 ± 3.2	–	S=C(Nc1ccccc1)N1CCN(C(c2ccccc2)c2ccccc2)CC1 [Thiourea 5g]	IC50 [2, 13]: > 10 µM; CC50 at 72 h [3, 14]: > 125 µM
77.5 ± 4.5	–	O=C(C1CCCO1)N1CCN(C(=S)NCc2ccccc2)CC1 (stereo not shown) [Thiourea 5b]	–
> 128	–	COc1cc(NC(=S)N2CCN(Cc3ccc4c(c3)OCO4)CC2)cc(OC)c1OC [Thiourea 5s]	–
18.8 ± 3.1	–	S=C(NCCc1ccccc1)N1CCN(c2nc3ccccc3[nH]2)CC1 [Thiourea 5q]	IC50 [2, 13]: > 10 µM; CC50 at 72 h [3, 14]: 72.9 ± 32.2 µM
22.3 ± 1.6	–	COc1cc(NC(=S)N2CCN(C(c3ccccc3)c3ccccc3)CC2)cc(OC)c1OC [Thiourea 5t]	IC50 [2, 13]: 4.9 ± 1.2 µM; CC50 at 72 h [3, 14]: 81.3 ± 16.9 µM
30.3 ± 4.6	–	S=C(NCc1ccccc1)N1CCN(Cc2ccc3c(c2)OCO3)CC1 [Thiourea 5e]	IC50 [2, 13]: > 10 µM; CC50 at 72 h [3, 14]: 122 ± 2.8 µM
90.2 ± 2.9	–	S=C(Nc1ccccc1)N1CCN(Cc2ccc3c(c2)OCO3)CC1 [Thiourea 5d]	–
> 128	–	O=C(C1CCCO1)N1CCN(C(=S)NCCc2ccccc2)CC1 (stereo not shown) [Thiourea 5c]	–
> 128	–	S=C(Nc1ccccc1)N1CCN(c2ccccc2Cl)CC1 [Thiourea 5j]	–
7.9 ± 1.9	–	S=C(NCc1ccccc1)N1CCN(C(c2ccccc2)c2ccccc2)CC1 [Thiourea 5h]	IC50 [2, 13]: 8.8 ± 3.5 µM; CC50 at 72 h [3, 14]: > 125 µM
42.5 ± 1.6	–	COc1ccc(CN2CCN(C(=S)NCc3ccccc3)CC2)c(OC)c1OC [Thiourea 5n]	IC50 [2, 13]: > 10 µM; CC50 at 72 h [3, 14]: 88.3 ± 5.6 µM
28.2 ± 2.5	–	S=C(NCCc1ccccc1)N1CCN(c2ccccc2Cl)CC1 [Thiourea 5l]	IC50 [2, 13]: > 10 µM; CC50 at 72 h [3, 14]: 79.5 ± 19.8 µM
30.7 ± 3	–	S=C(NCc1ccccc1)N1CCN(c2ccccc2Cl)CC1 [Thiourea 5k]	IC50 [2, 13]: > 10 µM; CC50 at 72 h [3, 14]: 68.3 ± 2.8 µM
6.9 ± 2	–	S=C(NCCc1ccccc1)N1CCN(C(c2ccccc2)c2ccccc2)CC1 [Thiourea 5i]	IC50 [2, 13]: 1.8 ± 0.5 µM; CC50 at 72 h [3, 14]: > 125 µM

Second part, the molecule before the results:

Molecule	IC50 [1, 11] [µM]	IC50 [1, 12] [µM]	other results
Cc1ccccc1NC(=S)NCc1ccccc1 [Thiourea 3u]	–	56.2 ± 4.2	–
O=C(NNC(=S)NCc1ccccc1)c1ccccc1 [Thiourea 3o]	–	80.4 ± 10	–
S=C(NCCc1ccccc1)N1CCOCC1 [Thiourea 3c]	–	> 100	–
CCCCNC(=S)Nc1cc(OC)c(OC)c(OC)c1 [Thiourea 3b′]	–	> 100	–
CC(C)Oc1cc(C(=O)Nc2cc(-c3ccccn3)n[nH]2)cc(C(=O)N2CCCC2)c1 [Compound 6]	–	–	IC50 [4]: > 42.4 µM; IC50 [5]: ≥ 10.9 µM
CN(C[C@H](O)[C@@H](O)[C@H](O)[C@H](O)CO)C(=S)NCc1ccccc1 [Thiourea 3w]	–	> 100	–
CCCCNC(=S)Nc1ccc([Se][Se]c2ccc(NC(=S)NCCCC)cc2)cc1 [Compound 10]	–	–	IC50 [6]: 2.36 ± 0.44 µM
CCCCNC(=S)Nc1ccccc1 [Thiourea 3t]	–	60 ± 6.4	–
meglumine antimoniate	–	–	IC50 [7]: 212 µM
COc1ccc(NC(=S)NCCc2ccccc2)cc1OC [Thiourea 3j]	–	> 100	–
S=C(NCCc1ccccc1)Nc1ccccn1 [Thiourea 3f]	–	> 100	–
COc1cc(NC(=S)Nc2nnc(C(F)(F)F)s2)cc(OC)c1OC [Thiourea 3a′]	–	77.8 ± 6.7	–
COc1cc(NC(=S)N2CCOCC2)cc(OC)c1OC [Thiourea 3x]	–	> 100	–
Oc1cccc(NC(=S)NCc2ccccc2)c1 [Thiourea 3v]	–	> 100	–
S=C(Nc1ccccc1)Nc1ccccn1 [Thiourea 3d]	–	–	IC50 [2, 15]: 10.8 ± 2.4 µM; CC50 at 72 h ([3]; G1 thioureas, 0–400 µM): > 400 µM
COc1cc(NC(=S)NCc2ccccc2)cc(OC)c1 [Thiourea 3k]	–	> 100	–
S=C(Nc1ccccc1)Nc1ccc(Br)cc1 [Thiourea 3p]	–	< 50	IC50 [1, 16]: 32.9 ± 9.5 µM; IC50 [2, 15]: 8.7 ± 1.4 µM; CC50 at 72 h ([3]; G1 thioureas, 0–400 µM): > 400 µM
CCCCCCCCCCCCCCCCOP(=O)([O-])OCC[N+](C)(C)C [Miltefosine, reference compound]	6.9 ± 2.4	6.9 ± 2.4	IC50 [2, 15]: 7.5 ± 1.2 µM; IC50 [2, 13]: 7.5 ± 1.2 µM; IC50 [6]: 2.84 ± 0.1 µM

Molecule	IC50 [1, 11] [µM]	IC50 [1, 12] [µM]	other results
S=C(Nc1ccccc1)N1CCOCC1 [Thiourea 3a]	–	> 100	–
N=C(N)c1ccc(OCCCCCOc2ccc(C(=N)N)cc2)cc1 [pentamidine]	–	–	IC50 [8]: 0.46 µM
S=C(NCc1ccccc1)Nc1ccc(Br)cc1 [Thiourea 3q]	–	< 50	IC50 [1, 16]: 44.4 ± 10.6 µM; IC50 [2, 15]: > 25 µM; CC50 at 72 h ([3]; G1 thioureas, 0–400 µM): > 400 µM
COc1cc(NC(=S)NCCc2ccccc2)cc(OC)c1 [Thiourea 3l]	–	> 100	–
COc1cc(NC(=S)Nc2ccccn2)cc(OC)c1OC [Thiourea 3y]	–	> 100	–
S=C(NCc1ccccc1)N1CCOCC1 [Thiourea 3b]	–	> 100	–
S=C(NCCc1ccccc1)Nc1ccc2c(c1)OCO2 [Compound 8]	–	–	IC50 [9]: 54.1 ± 6.77 µM; IC50 [7]: 70 µM
C[C@@H]1[C@H](O)[C@@H](C)/C=C/C=C/C=C/C=C/C=C/C=C/C=C/[C@H](O[C@@H]2O[C@H](C)[C@@H](O)[C@H](N)[C@@H]2O)C[C@@H]2O[C@](O)(C[C@@H](O)C[C@@H](O)[C@H](O)CC[C@@H](O)C[C@@H](O)CC(=O)O[C@H]1C)C[C@H](O)[C@H]2C(=O)O [amphotericin B]	–	–	IC50 [10]: 0.2 ± 0.01 µM
COc1ccc(NC(=S)NCc2ccccc2)cc1 [Thiourea 3h]	–	61.6 ± 6.5	–
COc1ccc(NC(=S)NCc2ccccc2)cc1OC [Thiourea 3i]	–	> 100	–
COc1cc(NC(=S)NCCc2ccccc2)cc(OC)c1OC [Thiourea 3m]	–	> 100	–
CCc1nnc(NC(=S)NCc2ccccc2)s1 [Thiourea 3s]	–	58.4 ± 1.9	–
Cc1sc(NC(=S)NC(=O)C2CC2)nc1-c1ccccc1 [Compound 11]	–	–	IC50 [10]: 122 ± 1.41 µM
COc1ccc(NC(=S)Nc2ccccc2)cc1 [Thiourea 3g]	–	> 100	–
CCOC(=O)c1ccc(NC(N)=S)cc1 [Thiourea 9]	–	–	IC50 [8]: 45 µM
S=C(NCc1ccccc1)Nc1ccccn1 [Thiourea 3e]	–	< 50	IC50 [1, 16]: 25.4 ± 8.3 µM; CC50 at 72 h ([3]; G1 thioureas, 0–400 µM): > 400 µM
COc1ccc(NC(=S)Nc2cc(OC)c(OC)c(OC)c2)cc1OC [Thiourea 3z]	–	> 100	–
Cc1nnc(NC(=S)Nc2ccccc2)s1 [Thiourea 3r]	–	65.8 ± 8.2	–
